Source: US8895504B2, “Amylin derivatives” (priority 2008, dated 2014)
*1 amine or outer side, *2 acyl side, *3 side chain or, on linkers, in order; H or OH if unused. Where a SMILES comes first, the peptide text is derived from it. Bridges are numbered along the chain shown (N, C = ends). The star is where a group is joined. C20 diacid = O=C(O)CCCCCCCCCCCCCCCCCCC(=O)*; C18 diacid = O=C(O)CCCCCCCCCCCCCCCCC(=O)*; γGlu = O=C(O)[C@H](CCC(=O)[*:2])N[*:1]; AEEA = NCCOCCOCC(=O)O

The molecules below were run against T1, Amylin 3(a) receptor (human calcitonin receptor (CTa) and RAMP-3) (Homo sapiens, UniProt O60896+P30988) (assay: Luciferase assay (III), BHK Amylin 3(a)//CRE-luc cells). Settings: BHK cells with Amylin 3(a) receptor and CRE luciferase reporter, 4 hours incubation; read-out: Potency Luciferase.
T1 construct: expressed in transfected cells; host or cells: BHK570 cells, stably transfected with a CRE-luciferase reporter
T1 sequence (O60896 24-148): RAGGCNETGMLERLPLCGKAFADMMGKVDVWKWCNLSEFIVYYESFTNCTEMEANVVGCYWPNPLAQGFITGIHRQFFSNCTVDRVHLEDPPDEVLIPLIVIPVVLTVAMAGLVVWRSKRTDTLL
T1 sequence (P30988 25-474): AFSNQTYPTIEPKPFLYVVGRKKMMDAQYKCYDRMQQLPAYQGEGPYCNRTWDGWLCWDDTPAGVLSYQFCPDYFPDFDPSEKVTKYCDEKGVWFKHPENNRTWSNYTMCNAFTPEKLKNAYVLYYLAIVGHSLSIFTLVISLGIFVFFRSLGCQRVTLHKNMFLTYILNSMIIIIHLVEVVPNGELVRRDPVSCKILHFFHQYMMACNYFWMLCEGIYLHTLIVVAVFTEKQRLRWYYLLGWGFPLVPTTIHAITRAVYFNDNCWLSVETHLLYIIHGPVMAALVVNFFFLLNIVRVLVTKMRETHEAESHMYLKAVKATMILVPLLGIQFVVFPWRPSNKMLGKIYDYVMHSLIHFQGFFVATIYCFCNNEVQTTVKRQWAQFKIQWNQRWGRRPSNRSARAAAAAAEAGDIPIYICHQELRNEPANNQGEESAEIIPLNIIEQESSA
Type: cell-based
From the text: It has previously been published (Poyner D R et al 2002, Pharmacological Reviews 54(2) 233-246) that activation of Amylin receptors (coexpression of Calcitonin receptor and receptor activity modifying peptides RAMPs) by Amylin leads to an increase in the intracellular concentration of cAMP. Consequently, transcription is activated at promoters containing multiple copies of the cAMP response element (CRE). It is thus possible to measure Amylin activity by use of a CRE luciferase reporter gene introduced into BHK cells also expressing an Amylin receptor.
2. Construction of an Amylin 3(a)/CRE-luc Cell Line
A BHK570 cell line stably transfected with the human calcitonin receptor (CTa) and a CRE-responsive luciferase reportergene. The cell line was further transfected with RAMP-3, using standard methods. This turns the Calcitonin receptor into an Amylin 3(a) receptor. Methotrexate, Neomycin, and Hygromycin are selection markers for luciferase, the Calcitonin receptor, and RAMP-3, respectively.
3. Amylin Luciferase Assay
To perform activity assays, BHK Amylin 3(a)//CRE-luc cells were seeded in white 96 well culture plates at a density of about 20,000 cells/well. The cells were in 100 μl growth medium (DMEM with 10% FBS, 1% Pen/Strep, 1 mM Na-pyruvate, 250 nM Methotrexate, 500 μg/ml Neomycin, and 400 μg/ml Hygromycin). After incubation overnight at 37° C. and 5% CO2, the growth medium was replaced by 50 μl/well assay medium (DMEM (without phenol red), Glumamax™, 10% FBS, and 10 mM Hepes, pH 7,4). Further, 50 μl/well of standard or sample in assay buffer were added. After 4 hours incubation at 37° C. and 5% CO2, the assay medium with standard or sample were removed and replaced by 100 μl/well PBS. Further, 100 μl/well LucLite™ was added. The plates were sealed and incubated at room temperature for 30 minutes. Finally, luminescence was measured on a TopCounter (Packard) in SPC (single photon counting) mode.
Molecule `CC[C@H](C)[C@H](NC(=O)[C@@H]1CCCN1C(=O)CNC(=O)[C@H](Cc1ccccc1)NC(=O)[C@H](CC(N)=O)NC(=O)[C@H](CC(N)=O)NC(=O)[C@H](CO)NC(=O)[C@H](CO)NC(=O)[C@H](Cc1c[nH]cn1)NC(=O)[C@H](C)NC(=O)[C@H](CC(C)C)NC(=O)[C@H](Cc1ccccc1)NC(=O)[C@H](CC(N)=O)NC(=O)[C@H](C)NC(=O)[C@H](CC(C)C)NC(=O)[C@H](CCCNC(=N)N)NC(=O)[C@H](CCC(N)=O)NC(=O)[C@@H](NC(=O)[C@H](C)NC(=O)[C@@H]1CSSC[C@H](NC(=O)[C@H](CCCCN)NC(=O)[C@H](CCCNC(=N)N)NC(=O)COCCOCCNC(=O)CC[C@H](NC(=O)CCCCCCCCCCCCCCCCCCC(=O)O)C(=O)O)C(=O)N[C@@H](CC(N)=O)C(=O)N[C@@H]([C@@H](C)O)C(=O)N[C@@H](C)C(=O)N[C@@H]([C@@H](C)O)C(=O)N1)[C@@H](C)O)C(=O)N[C@@H](CC(C)C)C(=O)N1CCC[C@H]1C(=O)N1CCC[C@H]1C(=O)N[C@H](C(=O)N[C@@H](CC(N)=O)C(=O)N[C@H](C(=O)NCC(=O)N[C@@H](CO)C(=O)N[C@@H](CC(N)=O)C(=O)N[C@H](C(=O)N[C@@H](Cc1ccc(O)cc1)C(N)=O)[C@@H](C)O)C(C)C)[C@@H](C)O` [Example 24, N-alpha-[2-(2-{2-[4-(S)-Carboxy-4-(19-carboxynonadecanoylamino)butyrylamino]ethoxy}ethoxy)acetyl]-Arg-[Ala17]-pramlintide] ({C20 diacid-γGlu-AEEA}-RKCNTATCATQRLANFLAHSSNNFGPILPPTNVGSNTY-NH2; disulfide 3-8) has an EC50 of 80 pM. With `CC[C@H](C)[C@H](NC(=O)[C@@H]1CCCN1C(=O)CNC(=O)[C@H](Cc1ccccc1)NC(=O)[C@H](CC(N)=O)NC(=O)[C@H](CC(N)=O)NC(=O)[C@H](CO)NC(=O)[C@H](CO)NC(=O)[C@H](Cc1c[nH]cn1)NC(=O)[C@H](Cc1c[nH]cn1)NC(=O)[C@H](CC(C)C)NC(=O)[C@H](Cc1ccccc1)NC(=O)[C@H](CC(N)=O)NC(=O)[C@H](C)NC(=O)[C@H](CC(C)C)NC(=O)[C@H](CCCNC(=N)N)NC(=O)[C@H](CCC(N)=O)NC(=O)[C@@H](NC(=O)[C@H](C)NC(=O)[C@@H]1CSSC[C@H](NC(=O)[C@H](CCC(=O)O)NC(=O)CC[C@H](NC(=O)CCCCCCCCCCCCCCCCCCC(=O)O)C(=O)O)C(=O)N[C@@H](CC(N)=O)C(=O)N[C@@H]([C@@H](C)O)C(=O)N[C@@H](C)C(=O)N[C@@H]([C@@H](C)O)C(=O)N1)[C@@H](C)O)C(=O)N[C@@H](CC(C)C)C(=O)N1CCC[C@H]1C(=O)N1CCC[C@H]1C(=O)N[C@H](C(=O)N[C@@H](CC(N)=O)C(=O)N[C@H](C(=O)NCC(=O)N[C@@H](CO)C(=O)N[C@@H](CC(N)=O)C(=O)N[C@H](C(=O)N[C@@H](Cc1ccc(O)cc1)C(N)=O)[C@@H](C)O)C(C)C)[C@@H](C)O` [Example 51, N-alpha-[(S)-4-Carboxy-4-(19-carboxynonadecanoylamino)butyryl]-[Glu 1,His17]-pramlintide] ({C20 diacid-γGlu}-ECNTATCATQRLANFLHHSSNNFGPILPPTNVGSNTY-NH2; disulfide 2-7) the EC50 was 200 pM. `CC[C@H](C)[C@H](NC(=O)[C@@H]1CCCN1C(=O)CNC(=O)[C@H](Cc1ccccc1)NC(=O)[C@H](CC(N)=O)NC(=O)[C@H](CC(N)=O)NC(=O)[C@H](CO)NC(=O)[C@H](CO)NC(=O)[C@H](Cc1c[nH]cn1)NC(=O)[C@H](CCCNC(=N)N)NC(=O)[C@H](CC(C)C)NC(=O)[C@H](Cc1ccccc1)NC(=O)[C@H](CC(N)=O)NC(=O)[C@H](C)NC(=O)[C@H](CC(C)C)NC(=O)[C@H](CCCNC(=N)N)NC(=O)[C@H](CCC(N)=O)NC(=O)[C@@H](NC(=O)[C@H](C)NC(=O)[C@@H]1CSSC[C@H](NC(=O)CC[C@H](NC(=O)CCCCCCCCCCCCCCCCCCC(=O)O)C(=O)O)C(=O)N[C@@H](CC(N)=O)C(=O)N[C@@H]([C@@H](C)O)C(=O)N[C@@H](C)C(=O)N[C@@H]([C@@H](C)O)C(=O)N1)[C@@H](C)O)C(=O)N[C@@H](CC(C)C)C(=O)N1CCC[C@H]1C(=O)N1CCC[C@H]1C(=O)N[C@H](C(=O)N[C@@H](CC(N)=O)C(=O)N[C@H](C(=O)NCC(=O)N[C@@H](CO)C(=O)N[C@@H](CC(N)=O)C(=O)N[C@H](C(=O)N[C@@H](Cc1ccc(O)cc1)C(N)=O)[C@@H](C)O)C(C)C)[C@@H](C)O` [Example 14, N-alpha-[(S)-4-Carboxy-4-(19-carboxynonadecanoylamino)butyryl]-[Arg17]-pramlintide (2-37)] ({C20 diacid-γGlu}-CNTATCATQRLANFLRHSSNNFGPILPPTNVGSNTY-NH2; disulfide 1-6) was tested, and the EC50 was 200 pM. In the case of `CC[C@H](C)[C@H](NC(=O)[C@@H]1CCCN1C(=O)CNC(=O)[C@H](Cc1ccccc1)NC(=O)[C@H](CC(N)=O)NC(=O)[C@H](CC(N)=O)NC(=O)[C@H](CO)NC(=O)[C@H](CO)NC(=O)[C@H](Cc1c[nH]cn1)NC(=O)[C@H](C)NC(=O)[C@H](CC(C)C)NC(=O)[C@H](Cc1ccccc1)NC(=O)[C@H](CC(N)=O)NC(=O)[C@H](C)NC(=O)[C@H](CC(C)C)NC(=O)[C@H](CCCNC(=N)N)NC(=O)[C@H](CCC(N)=O)NC(=O)[C@@H](NC(=O)[C@H](C)NC(=O)[C@@H]1CSSC[C@H](NC(=O)[C@H](CCCCN)NC(=O)[C@H](CCCNC(=N)N)NC(=O)CC[C@H](NC(=O)CCCCCCCCCCCCCCCCCCC(=O)O)C(=O)O)C(=O)N[C@@H](CC(N)=O)C(=O)N[C@@H]([C@@H](C)O)C(=O)N[C@@H](C)C(=O)N[C@@H]([C@@H](C)O)C(=O)N1)[C@@H](C)O)C(=O)N[C@@H](CC(C)C)C(=O)N1CCC[C@H]1C(=O)N1CCC[C@H]1C(=O)N[C@H](C(=O)N[C@@H](CC(N)=O)C(=O)N[C@H](C(=O)NCC(=O)N[C@@H](CO)C(=O)N[C@@H](CC(N)=O)C(=O)N[C@H](C(=O)N[C@@H](Cc1ccc(O)cc1)C(N)=O)[C@@H](C)O)C(C)C)[C@@H](C)O` [Example 19, N-alpha-[(S)-4-Carboxy-4-(19-carboxynonadecanoylamino)butyryl]-Arg-[Ala17]-pramlintide] ({C20 diacid-γGlu}-RKCNTATCATQRLANFLAHSSNNFGPILPPTNVGSNTY-NH2; disulfide 3-8), the EC50 is reported as 100 pM. `CC[C@H](C)[C@H](NC(=O)[C@@H]1CCCN1C(=O)CNC(=O)[C@H](Cc1ccccc1)NC(=O)[C@H](CC(N)=O)NC(=O)[C@H](CC(N)=O)NC(=O)[C@H](CO)NC(=O)[C@H](CO)NC(=O)[C@H](Cc1c[nH]cn1)NC(=O)[C@H](CCCNC(=N)N)NC(=O)[C@H](CC(C)C)NC(=O)[C@H](Cc1ccccc1)NC(=O)[C@H](CC(N)=O)NC(=O)[C@H](C)NC(=O)[C@H](CC(C)C)NC(=O)[C@H](CCCNC(=N)N)NC(=O)[C@H](CCC(N)=O)NC(=O)[C@@H](NC(=O)[C@H](C)NC(=O)[C@@H]1CSSC[C@H](NC(=O)[C@H](CCCCN)NC(=O)[C@H](CCCNC(=N)N)NC(=O)CC[C@H](NC(=O)CCCCCCCCCCCCCCCCC(=O)O)C(=O)O)C(=O)N[C@@H](CC(N)=O)C(=O)N[C@@H]([C@@H](C)O)C(=O)N[C@@H](C)C(=O)N[C@@H]([C@@H](C)O)C(=O)N1)[C@@H](C)O)C(=O)N[C@@H](CC(C)C)C(=O)N1CCC[C@H]1C(=O)N1CCC[C@H]1C(=O)N[C@H](C(=O)N[C@@H](CC(N)=O)C(=O)N[C@H](C(=O)NCC(=O)N[C@@H](CO)C(=O)N[C@@H](CC(N)=O)C(=O)N[C@H](C(=O)N[C@@H](Cc1ccc(O)cc1)C(N)=O)[C@@H](C)O)C(C)C)[C@@H](C)O` [Example 26, N-alpha-[(S)-4-Carboxy-4-(17-carboxyheptadecanoylamino)butyryl]-Arg-[Arg17]-pramlintide] ({C18 diacid-γGlu}-RKCNTATCATQRLANFLRHSSNNFGPILPPTNVGSNTY-NH2; disulfide 3-8) gave an EC50 of 50 pM.
